This passage reports IC50 and Activity results from ChEMBL document CHEMBL1140967, “Regiospecific microwave-assisted synthesis and cytotoxic activity against human breast cancer cells of (RS)-6-substituted-7- or 9-(2,3-dihydro-5H-1,4-benzodioxepin-3-yl)-7H- or -9H-purines” (Eur J Med Chem, 2008).

Assay [1] relates to MCF7. The assay is described as follows: Antiproliferative activity against human MCF7 cells after 6 days by SRB assay. As to conditions: MCF7, 144 h. On the technique in general: The SRB assay estimates cell density from bound dye.
In assay [2] the test system is MCF7. The experiment in a line: Cell cycle arrest in human MCF7 cells assessed as accumulation at G2/M phase at cytotoxic IC50 after 48 hrs by FACS assay. It counts as functional. (In general: Flow cytometry measures light scatter and fluorescence of single cells or particles in a stream.)
Assay [3] relates to MCF7. The assay is described as follows: Cell cycle arrest in human MCF7 cells assessed as accumulation at G0/G1 phase at cytotoxic IC50 after 48 hrs by FACS assay. It counts as functional.
Assay [4] has as its system MCF7. The experiment in a line: Induction of apoptosis in human MCF7 cells at cytotoxic IC50 after 48 hrs by Annexin-V based assay. Format: functional.
Assay [5] deals with MCF7. The assay is described as follows: Cell cycle arrest in human MCF7 cells assessed as accumulation at S phase at cytotoxic IC50 after 48 hrs by FACS assay. Format: functional.

SMILES strings stand for the structures.

A word on the IC50: it is the concentration needed to halve the response being measured. Read a low IC50 as greater potency in that assay. In the case of `CSc1ncnc2[nH]cnc12`, in assay [1], the IC50 was 23.6 µM.

In turn, `c1ccc(Sc2ncnc3[nH]cnc23)cc1` gave an IC50 in assay [1] of 31 µM.

Take `Fc1ccc(Sc2ncnc3[nH]cnc23)cc1`: the half-maximal inhibitory concentration (IC50) in assay [1] was 31.6 µM.

In assay [1], `Nc1nc(OCC2CCCCC2)c2nc[nH]c2n1` showed an IC50 of 24.2 µM.

Consider `c1ccc(Oc2ncnc3[nH]cnc23)cc1`, for which inhibition in assay [1] was half-maximal at 28.4 µM (IC50).

For `O=c1ccn(C2COc3ccccc3CO2)c(=O)[nH]1` (configuration not stated), in assay [1], the IC50 was 5 µM.

`c1nc(OCC2CCCCC2)c2nc[nH]c2n1` yielded an IC50 in assay [1] of 32.3 µM.

`C=CCOc1ncnc2[nH]cnc12` came in with an IC50 in assay [1] of 44.7 µM.

On to `Clc1ccc(Sc2ncnc3[nH]cnc23)c(Cl)c1`, for which, in assay [1], the IC50 came to 21.4 µM.

In turn, `c1ccc(Oc2ncnc3c2ncn3C2COc3ccccc3CO2)cc1` (racemic) displayed an IC50 in assay [1] of 24.7 µM.

In turn, `Clc1ccc(Sc2ncnc3c2ncn3C2COc3ccccc3CO2)c(Cl)c1` (racemic) came in with an IC50 in assay [1] of 12 µM.

`c1ccc2c(c1)COC(n1cnc3c(OCC4CCCCC4)ncnc31)CO2` (racemic) showed an IC50 in assay [1] of 11.6 µM.

Turning to `Fc1ccc(Sc2ncnc3ncn(C4COc5ccccc5CO4)c23)cc1` (racemic), the midpoint of inhibition in assay [1], the IC50, lay at 14.1 µM.

As to `Fc1ccc(Sc2ncnc3c2ncn3C2COc3ccccc3CO2)cc1` (racemic), the IC50 in assay [1] turned out to be 11.2 µM.

The molecule `c1ccc2c(c1)COC(n1cnc3ncnc(OCC4CCCCC4)c31)CO2` (racemic) registered an IC50 in assay [1] of 13.4 µM.

Consider `c1ccc(Oc2ncnc3ncn(C4COc5ccccc5CO4)c23)cc1` (racemic), for which, in assay [1], half-maximal inhibition (IC50) was put at 21.1 µM.

In turn, `c1ccc(Sc2ncnc3ncn(C4COc5ccccc5CO4)c23)cc1` (racemic) came in with an IC50 in assay [1] of 15.6 µM.

Take `Clc1ccc(Sc2ncnc3ncn(C4COc5ccccc5CO4)c23)c(Cl)c1` (racemic): the Activity in assay [2] came to 19.16%; in assay [3], 58.1%; in assay [4], 65.28%; in assay [5] it was 22.73%. Further, the IC50 in assay [1] stood at 8.4 µM.

In the case of `C=CCOc1ncnc2c1ncn2C1COc2ccccc2CO1` (racemic), the Activity in assay [2] was found to be 7.37%; in assay [3], 55.63%; in assay [4], 44.47%; in assay [5], 37%. Besides, in assay [1], the IC50 was found to be 5.04 µM.

In assay [1], `CSc1ncnc2c1ncn2C1COc2ccccc2CO1` (racemic) gave an IC50 of 24 µM.

On to `c1ccc(Sc2ncnc3c2ncn3C2COc3ccccc3CO2)cc1` (racemic), for which the Activity in assay [2] is recorded as 11.08%; in assay [3] it was 59.1%; in assay [4] it was 73.37%; in assay [5], 26.82%. In assay [1], this molecule came in with an IC50 of 7.12 µM.

In turn, `CSc1ncnc2ncn(C3COc4ccccc4CO3)c12` (racemic) displayed an IC50 in assay [1] of 31.8 µM.

The molecule `C=CCOc1ncnc2ncn(C3COc4ccccc4CO3)c12` (racemic) showed a 50% inhibitory concentration (IC50) in assay [1] of 20.9 µM.

As to `O=c1[nH]cc(F)c(=O)[nH]1` [FLUOROURACIL], the IC50 in assay [1] was found to be 4.32 µM.

With `CC(=O)O[C@H]1C(=O)[C@@]2(C)[C@H]([C@H](OC(=O)c3ccccc3)[C@]3(O)C[C@H](OC(=O)[C@H](O)[C@@H](NC(=O)c4ccccc4)c4ccccc4)C(C)=C1C3(C)C)[C@]1(OC(C)=O)CO[C@@H]1C[C@@H]2O` [PACLITAXEL], in assay [4], the Activity stood at 43%.
